Experimental data as given in patent publication US20110098492A1, “CLEANING COMPOSITIONS CONTAINING MID-RANGE ALKOXYLATES” (priority 2008, published 2011).

Key:
Cloud point = assay type: physicochemical
Daphna magna = assay: 48-hour acute toxicity to Daphnia; assay type: in vivo
Excerpt: The study procedures and test methods were based on the recommendations of the following guidelines: […]

[1] = Cleaning of cross-linked triglycerides (Gardner scrubber, soiled vinyl tile); design: key to Arbitrary Gray Value: mean gray value of tile image (ImageJ); settings: for Arbitrary Gray Value: 120 back-and-forth strokes, higher = better cleaning; for cleaning of cross-linked triglycerides (in words): aqueous solution, compared with NP-9 / APEs
Procedure: Test panels coated with mixtures of triglycerides and cross-linked triglycerides were prepared and evaluated using the following procedure. Cobalt Naphthenate was used as a catalyst to accelerate the oxidation of vegetable oil to give a hard varnish. Carbon black is added to the varnish to enable easy visual comparison of the ability to clean the cross-linked triglyceride from the surface.
Substrate Panels: White Vinyl Floor Tile: Tarket Corporation Azrock™ VS304-3 (6913) cut to 4¼×4¼ inch (to fit the Gardner Linear Motion Scrubber).
Soil Formulation: 100 grams Canola Oil (Food Grade, 100%, Kroger Co. Cincinnati, Ohio 45202); 2 grams Acetylene Carbon Black (Cat #39724, Alfa Aesar; Surface area=74 sq m/g); 20 grams drying agent: Cobalt Naphthenate Solution (Aldrich Cat #54,457-4, CAS #61789-51-3) (Comes as a 6% solution in petroleum solvent); Oven: Convection oven set at 160° F.
Scrubbing Tester: Gardco washability & Wear Tester; Linear Motion Test Equipment; Model D12-V Cat #WA-2164 (Paul N. Gardner Company, Inc. 316 N.E. First Street, Pompano, Beach, Fla. 33060.
Sponges: “Do-It” Cellulose Sponge, 1⅝ in thick, cut to 3″×4″. Manufactured by Bloch/New England for HWI, Fort Wayne, Ind. 46801;
Paint Brushes: Economy Chip Brush 1 Inch. www.lgsourcing.com Model #0106; Item #103407 obtained from Lowes, Inc. L. G. Sourcing, Inc. P.O. Box 1535 North Wilkseboro, N.C. 28659
Reflectance Meter: HunterLab ColorQuest XE
Prepare a stock solution by mixing 98 grams of canola oil (food grade) with 2.0 g acetylene-based carbon black (Cat #39724, Alfa Aesar; Surface area=74 sq m/g). Mix with a disperser at 2000 rpm for 15 min. (We used a Caframo Model BDC 3030 with a 0.50 dispersing blade).
Add 20.0 grams Cobalt Naphthenate Solution and mix well (by hand, using a glass stir rod).
Place 1.6 grams soil per 4×4 inch tile.
Paint to a thin film using a clean 1-inch economy brush. Use several strokes to get to an even coating. Use a clean, dry brush for each application. (After the application, each brush can be cleaned with acetone, dried, and then re-used).
Place in a convection oven set at 160 F for 16 hours. We place the panels in an oven at 4:00 p.m, and then remove the panels at 8:00 a.m. the next morning. Let the panels cool for 1 hour.
Use the panels within 10 days
Place a panel in the Gardner Scrubber
[…] (We use 5.0 grams surfactant diluted to 500 mL water).
Prepare a sponge by rinsing several times in cold tap water. Completely squeeze out the sponge by hand.
After each test, rinse out the sponge 15-20 times (by repeated sorption and squeezing) until there is no noticeable surfactant solution left (usually indicated by a lack of foam).
Pour 500 mL of surfactant solution into a beaker
Place the sponge into the beaker—allowing it to soak up as much surfactant as possible.
Place the sponge into the Gardner Scrubber.
Pour the remaining liquid (approx 400 mL) over the test panel in the scrubber. There should be enough liquid to just cover the test panel.
Program the scrubber to perform 120 back-and-forth strokes (for a total of 240 linear strokes). We define each back-and-forth stroke as “1 stroke”
Remove the panel rinse with tap water
Clean the Gardner scrubber by rinsing with tap water.
Clean the sponge by squeezing it out under tap water 20-30 times until clean.
Remove excess water from the sponge by squeezing as much liquid out as possible.
After the panel is dry, either take pictures (for visual comparison of cleaning) or measure the reflectance using the Xyy mode of a Hunter Colorimeter. Alternatively, the mean gray value can be obtained by taking a picture of the tiles and processing computer image with ImageJ™ software, which is distributed freely by the National Institute of Health (nih.gov).

Desmondesmus subspicatus = assay: Fresh water algal growth inhibition test (OECD 201); assay type: cell-based; settings: growth rate
Excerpt: Organization for Economic Cooperation and Development (OECD): OECD Guidelines for the Testing of Chemicals, “Freshwater Alga and Cyanobacteria, Growth Inhibition Test”, Procedure 201, adopted 23 Mar. 2006; European Economic Community (EEC): […] OECD Guidelines for the Testing of Chemicals, “Freshwater Alga and Cyanobacteria, Growth Inhibition Test”, Procedure 201, adopted 23 Mar. 2006; European Economic Community (EEC): […]

Sicklepod = assay: Greenhouse herbicide adjuvant efficacy with glyphosate; assay type: in vivo; settings: adjuvant 0.25% v/v in spray, visual injury at 18 DAA
Procedure: Efficacy of Examples 7 and 8 as adjuvants in formulated herbicides is compared to commercially available herbicide packages. Greenhouse field testing is completed. A 480 g ae/L (acid equivalent per liter) formulation of glyphosate isopropylamine with no adjuvants is added to spray vials. These aliquots are diluted to a final volume of 60 ml with tap water, and appropriate amounts of adjuvants are added to the spray solution. The Examples 7 and 8 series are tested at 0.25% v/v in the final spray solution. Treatment rates are: 200, 400, and 600 g ae/ha (“ha” means hectare) and each treatment is replicated three times. Treatments are applied with a tracksprayer. The sprayer utilizes an 8002E spray nozzle, spray pressure of 262 kPa pressure and speed of 2.2 mph to deliver 140 L/Ha. The nozzle height is 46 cm above the pots. Percent visual injury assessments are made at 18 DAA (days after application) on a scale of 0 to 100% as compared to the untreated control plants (where 0 is equal to no injury and 100 is equal to complete death of the plant). Results are shown in Table 10 as % Control of Sicklepod with Glyphosate compared to commercial herbicides.

[2] = Ross-Miles foam height test (ASTM D1173); assay type: physicochemical
Procedure: A) Ross-Miles Foam Height Test: This test is carried out according to the protocol of ASTM […].

[3] = Surface tension and critical micelle concentration (Wilhelmy plate); assay type: physicochemical
Procedure: B) Surface Tension and Critical Micelle Concentration (CMC) Measurement. For this test the surface tension of a surfactant-water solution is measured while incrementally adding the surfactant to de-ionized water. Results are measured in terms of dyne/centimeters using a Wilhelmy plate. Results are recorded versus surfactant concentration. The Critical Micelle Concentration is the point at which an increase in surfactant concentration no longer results in a change in surface tension.

C9(BO)1(EO)6
cloud point (Cloud point): 38.5 C

2EH(PO)5(EO)9 [Example 8]
48-hour Acute Toxicity to Daphna magna (EC50-50 hour) (Daphna magna): >100 mg/L
Arbitrary Gray Value ([1]; 1% by weight in water): 128
Fresh Water algal growth inhibition test with Desmondesmus subspicatus ErC50/0-3 (Desmondesmus subspicatus): 97.7 mg/L
% Control of Sicklepod with Glyphosate (Sicklepod; 200 G/ha glyphosate): 31.7%
% Control of Sicklepod with Glyphosate (Sicklepod; 400 G/ha glyphosate): 73.3%
% Control of Sicklepod with Glyphosate (Sicklepod; 600 G/ha glyphosate): 75.0%

2EH(PO)5(EO)6 [Example 7]
Arbitrary Gray Value ([1]; 0.5% by weight in water): 106
Arbitrary Gray Value ([1]; 1% by weight in water): 179
cleaning of cross-linked triglycerides (in words) [1]: performs as well as NP-9
cleaning of cross-linked triglycerides (in words) ([1]; listed as 2EH(PO)5(EO)6): performs as well and NP-9
% Control of Sicklepod with Glyphosate (Sicklepod; 200 G/ha glyphosate): 66.7%
% Control of Sicklepod with Glyphosate (Sicklepod; 400 G/ha glyphosate): 81.7%
% Control of Sicklepod with Glyphosate (Sicklepod; 600 G/ha glyphosate): 98.3%

C9(BO)1(EO)7 [Example 9]
48-hour Acute Toxicity to Daphna magna (EC50-50 hour) (Daphna magna): 6.2 mg/L
Arbitrary Gray Value ([1]; 1% by weight in water): 121
cloud point (Cloud point): 53.9 C
Fresh Water algal growth inhibition test with Desmondesmus subspicatus ErC50/0-3 (Desmondesmus subspicatus): 21 mg/L

C9(PO)4(EO)6.8
cloud point (Cloud point): 43.0 C

2EH(PO)2(EO)4 [Example 1]
Ross Miles Foam Height, millimeters, 5 Minutes ([2]; 5 Minutes): 5 millimeters
Ross Miles Foam Height, millimeters, Initial ([2]; Initial (0 sec)): 110 millimeters
Surface Tension ([3]; 0.1 wt % in water): 35 dyne/centimeters
Critical Micelle Concentration ([3]; in de-ionized water): 3300 ppm

C12-14(EO)5 [reference compound]
Arbitrary Gray Value ([1]; 1% by weight in water): 68
